Test [1] relates to chromatin-bound H1.0K180me2 and γH2A.X. Description: Western blot of chromatin-bound H1.0K180me2 and γH2A.X upon bleomycin with PARP-1 inhibition. Particulars: 1 μM for 24 hours, bleomycin treatment. The class given is cell-based, human. The text has this: (§1) Material for western blot analysis (cultured cells or tissue) was lysed in ice-cold RIPA lysis buffer (Thermo Scientific 89900) and sonicated using a Covaris S2 sonicator (10% duty cycle, Intensity 5, Bursts per minute 100, 120 seconds). Total protein concentration in each sample was quantified using Quick Start Bradford 1× Dye Reagent (BioRad, 5000205) following manufacturer's protocol. Samples were then mixed with NUPAGE LDS sample loading buffer (ThermoFisher, NP0007) and NUPAGE sample reducing buffer (ThermoFisher, NP0004), and heat denatured at 70° C. for 10 minutes. Proteins were separated on 4-12% precast polyacrylamide gels (ThermoFisher, NP0321) by electrophoresis and transferred to 0.45 μm nitrocellulose membrane. […] Proteins were detected with HRP secondary antibodies listed above for 1 hour at RT followed by ECL Western Blotting Substrate (ThermoFisher, 32106) using manufacturer's instructions. […]
(§2) To further assess if H1.0K180 methylation is dependent on the DNA damage repair pathway protein PARP-1 activity, western blot analysis was performed according to methods described in Example 1, to examine chromatin-bound H1.0K180me2 and γH2A.X upon treatment with bleomycin. […] Thus it was determined that H1.0K180 methylation is independent of DNA damage repair pathway protein PARP-1 activity

In a further test the target is T1, PARP-1 (Homo sapiens, UniProt P09874).
T1 construct: endogenous in cells; host or cells: hADSCs (inferred)
In words: Western blot of PARP-1 inhibitor activity in whole cell lysates (poly-(ADP)-ribose levels). The class given is cell-based. The conditions noted are these: 1 μM for 24 hours.
Source text: as §1, §2
For orientation: Immunoblotting shows a protein as a band on a membrane.

The test system of test [2] is H1.0K180me2. In words: Western blot for H1.0K180me2 in SR hADSCs after bleomycin or temozolomide. The class given is cell-based, human. Particulars: SR hADSCs treated for 2 hours, 50 μg/ml. The text has this: Material for western blot analysis (cultured cells or tissue) was lysed in ice-cold RIPA lysis buffer (Thermo Scientific 89900) and sonicated using a Covaris S2 sonicator (10% duty cycle, Intensity 5, Bursts per minute 100, 120 seconds). Total protein concentration in each sample was quantified using Quick Start Bradford 1× Dye Reagent (BioRad, 5000205) following manufacturer's protocol. Samples were then mixed with NUPAGE LDS sample loading buffer (ThermoFisher, NP0007) and NUPAGE sample reducing buffer (ThermoFisher, NP0004), and heat denatured at 70° C. for 10 minutes. Proteins were separated on 4-12% precast polyacrylamide gels (ThermoFisher, NP0321) by electrophoresis and transferred to 0.45 μm nitrocellulose membrane. The membrane was blocked with 5% non-fat milk in PBS-T for 30 minutes at RT then immunoblotted with the above primary antibodies at 4° C. overnight. Proteins were detected with HRP secondary antibodies listed above for 1 hour at RT followed by ECL Western Blotting Substrate (ThermoFisher, 32106) using manufacturer's instructions. All washes between steps were with PBS-T. Membranes were imaged with Omega LUM-C imaging system (Gel Company). […]
SR hADSCs were treated for 2 hours with bleomycin or temozolomide, a compound that triggers base excision repair pathways. Cells were then lysed and analyzed be western blot for H1.0K180me2, γH2A.X and β-Actin.

The next test deals with histone H1.0 mRNA. Description: RT-PCR analysis of histone H1.0 mRNA expression in hADSCs after bleomycin. In kind it is cell-based, human. The procedure:
(§3) For replicative senescence, hADSCs were grown in culture until reaching replicative exhaustion (PD 41-46). For acute DNA damage conditions, SR hADSCs (PD 4-10) were treated with 50 μg/ml bleomycin sulfate (Cayman Chemical, 13877) in growth media for 2 hours. For genotoxic stress-induced senescence, SR hADSCs (PD 4-10) were treated with 50 μg/ml bleomycin sulfate (Cayman Chemical, 13877) in growth media for 2 hours then washed with PBS and given fresh growth media without bleomycin. Cells were then grown for 3 days before collection.
RT-PCR analysis of histone H1.0 mRNA expression was performed on total RNA derived from self-replicating hADSCs, hADSCs treated with bleomycin for 2 hours (acute DNA damage) and hADSCs treated with bleomycin and allowed to senesce for 3 days (genotoxic stress-induced senescence). H1.0 mRNA expression increases over 2-fold upon acute DNA damage, and remains elevated (1.5-fold over SR) upon genotoxic stress induced senescence.

The subject of test [3] is H1.0K180me2. Description: H1.0K180me2 on chromatin (western blot) and localization in hADSCs after bleomycin. In kind it is cell-based, human. The protocol: as §3
as §1, with “minutes.” for “minutes. Proteins were separated on 4-12% precast polyacrylamide gels (ThermoFisher, NP0321) by electrophoresis and transferred to 0.45 μm nitrocellulose membrane.”

The next test relates to Chromatin bound H1.0. In words: LC-MS/MS of soluble and chromatin bound fractions of hADSCs after bleomycin. The class given is cell-based, human. The protocol: as §3
SR hADSCs, hADSCs treated with bleomycin for 2 hours (acute DNA damage) and hADSCs treated with bleomycin and allowed to senesce for 3 days (genotoxic stress induced senescence) were lysed and fractionated into soluble and chromatin bound fractions. These fractions were then subjected to LC-MS/MS analysis. Peptide expression levels were taken as the total area under the LC-MS/MS relative intensity curve, and individual peptides were unambiguously assigned to proteins using Pinpoint software, version 1.4 (Thermo Scientific). The areas of all peptides assigned to an individual protein were summed to yield protein expression levels, which were normalized against the total protein library size for each sample. For each cellular fraction, H1.0 peptide abundance is represented as a percentage of total H1.0 peptides observed in each condition. […]

A further test deals with secreted H1.0K180me2. Description: Slot blot of conditioned medium of hADSCs after bleomycin (secretion). In kind it is cell-based, human. The procedure:
0.5 μl of serum sample or known amounts of synthesized peptide were diluted in 200 μl TBS. Samples were then heat denatured at 70° C. for 10 minutes before being transferred to nitrocellulose membrane using a vacuum manifold slot blot apparatus (BioRad, 1706542). The membrane was blocked with 5% non-fat milk in PBS-T for 30 minutes at RT then immunoblotted with the above primary antibodies at 4° C. overnight. Proteins were detected with HRP secondary antibodies listed above for 1 hour at RT followed by ECL Western Blotting Substrate (ThermoFisher, 32106) using manufacturer's instructions. All washes between steps were with PBS-T. Membranes were imaged with Omega LUM-C imaging system (Gel Company). Slot blot bands for each sample were then quantified using ImageJ.
This signifies secretion out of the cells. An increase in DNA fragmentation factor (DFFB/DFF40/CAD) secretion upon GSI-SEN was seen, in a similar manner to H1.0K180me2 starting 48 hours after treatment (FIG. 7B).
SR hADSCs, hADSCs treated with bleomycin for 2 hours (acute DNA damage) and hADSCs treated with bleomycin and allowed to senesce for 3 days (genotoxic stress induced senescence) were lysed and fractionated into soluble and chromatin bound fractions. These fractions were then subjected to LC-MS/MS analysis. Peptide expression levels were taken as the total area under the LC-MS/MS relative intensity curve, and individual peptides were unambiguously assigned to proteins using Pinpoint software, version 1.4 (Thermo Scientific). The areas of all peptides assigned to an individual protein were summed to yield protein expression levels, which were normalized against the total protein library size for each sample. For each cellular fraction, H1.0 peptide abundance is represented as a percentage of total H1.0 peptides observed in each condition. Normalized absolute values of H1.0 peptide levels in each fraction were also shown. […] Culture media from SR hADSCs treated with bleomycin was collected for slot blot analysis with α-H1.0 and α-H1.0K180me2 antibodies to assess secretion of H1.0 to the extracellular matrix (ECM). The experiment was carried out according to methods described in Example 1.

Test [4] relates to H1.0K180me2. In words: Western blot for H1.0K180me2 in SR hADSCs treated with bleomycin after rapamycin or everolimus pretreatment. In kind it is cell-based, human. Particulars: 500 nM, 24 hours pretreatment, then bleomycin 2 hours.
Source text: as §1
To test if rapamycin derivatives may block H1.0K180me2 appearance upon DNA damage, SR hADSCs were treated with bleomycin for 2 hours with or without pretreatment with rapamycin or everolimus (a derivative of rapamycin) for 24 hours. Cells were then lysed and analyzed be western blot for H1.0K180me2, γH2A.X and β-Actin, according to methods described in Example 1.

The mark [5] stands for this setting: acute DNA damage: bleomycin for 2 hours.
Where [6] appears, read: genotoxic stress induced senescence: bleomycin, then 3 days.

The text below walks through data of patent US20240255509A1, “COMPOSITIONS AND METHODS RELATED TO K180 DIMETHYLATED H1.0 PROTEIN” (Aelan Cell Technologies, Inc., priority 2016, published 2024).

T1 sequence (P09874 whole entry): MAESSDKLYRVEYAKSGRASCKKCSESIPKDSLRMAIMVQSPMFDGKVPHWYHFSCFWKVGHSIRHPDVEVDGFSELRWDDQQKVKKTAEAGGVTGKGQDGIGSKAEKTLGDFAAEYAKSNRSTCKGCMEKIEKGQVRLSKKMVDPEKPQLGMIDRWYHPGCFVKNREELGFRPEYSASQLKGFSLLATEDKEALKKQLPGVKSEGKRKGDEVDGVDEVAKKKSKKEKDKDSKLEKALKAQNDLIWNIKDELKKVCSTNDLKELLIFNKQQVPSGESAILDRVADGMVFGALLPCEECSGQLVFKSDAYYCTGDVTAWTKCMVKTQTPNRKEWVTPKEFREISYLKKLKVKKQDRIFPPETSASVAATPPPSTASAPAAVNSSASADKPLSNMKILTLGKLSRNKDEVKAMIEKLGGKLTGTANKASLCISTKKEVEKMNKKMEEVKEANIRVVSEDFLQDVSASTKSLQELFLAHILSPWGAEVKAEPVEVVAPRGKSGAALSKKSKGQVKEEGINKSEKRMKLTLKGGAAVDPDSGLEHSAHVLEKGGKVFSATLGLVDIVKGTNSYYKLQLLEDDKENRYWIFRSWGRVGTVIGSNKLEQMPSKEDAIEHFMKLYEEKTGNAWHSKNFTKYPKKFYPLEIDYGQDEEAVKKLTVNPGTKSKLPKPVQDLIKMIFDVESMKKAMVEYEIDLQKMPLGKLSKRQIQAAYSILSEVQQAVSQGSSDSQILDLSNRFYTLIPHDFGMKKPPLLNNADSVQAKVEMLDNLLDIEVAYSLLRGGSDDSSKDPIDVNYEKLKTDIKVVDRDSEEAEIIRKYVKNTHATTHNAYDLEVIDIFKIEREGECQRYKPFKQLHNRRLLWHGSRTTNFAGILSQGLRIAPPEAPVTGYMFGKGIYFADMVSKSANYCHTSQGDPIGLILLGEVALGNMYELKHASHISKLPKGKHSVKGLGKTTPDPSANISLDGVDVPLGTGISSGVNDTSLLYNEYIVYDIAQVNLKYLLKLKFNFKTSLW

`CN(C)Cc1ccc(-c2nc3cccc4c3n2CCNC4=O)cc1` [AG14361]: in test [1], the “accumulation of chromatin-bound H1.0K180me2” value is “increased accumulation” and the “accumulation of chromatin-bound γH2A.X” value was “increased accumulation”. Moreover, the “poly-(ADP)-ribose (PAR) levels increased upon bleomycin treatment” value at PARP-1 is “abolished”.
In the case of bleomycin sulfate, the “induction of H1.0K180me2 methylation” value in the test with H1.0K180me2 [2] is “capable of inducing H1.0K180me2 methylation”. Also, the figures for the “H1.0 mRNA expression increase over SR” value in the test with histone H1.0 mRNA (setting [5]) and with histone H1.0 mRNA (setting [6]) were “over 2 fold” and 1.5 fold, respectively. The “localization of H1.0K180me2” value in the test on H1.0K180me2 [3] (SR hADSCs treated with bleomycin) is listed as “localized to the cytoplasm”. In the test with H1.0K180me2 [3] (bleomycin for 2 hours, chromatin bound fraction, western blot), the “methylation of H1.0K180 on chromatin” value is on record as “methylation of H1.0K180 on the chromatin”. Besides, the entries for the “Chromatin bound H1.0, % of total H1.0 peptides” value with Chromatin bound H1.0 (setting [5]) and in the test on Chromatin bound H1.0 (setting [6]) were about 60% and about 30%, respectively. In addition, in the test on secreted H1.0K180me2 (GSI-SEN, starting 48 hours after treatment), the “DNA fragmentation factor (DFFB/DFF40/CAD) secretion” value is reported as “increase”. In addition, in the test with secreted H1.0K180me2 (acute DNA damage), the “secretion of H1.0K180me2 and DFFB upon onset of acute DNA damage (ADD)” value was “None of the protein is secreted in measurable quantities”. In the test with secreted H1.0K180me2 (after 24 hours of bleomycin treatment), the “secreted H1.0K180me2 in cell culture media” value is “readily detected”. The “time of maximal H1.0K180me2 secretion into conditioned medium” value in the test on secreted H1.0K180me2 (time course after bleomycin) is at most 48 h.
Turning to `CO[C@H]1C[C@@H]2CC[C@@H](C)[C@@](O)(O2)C(=O)C(=O)N2CCCC[C@H]2C(=O)O[C@H]([C@H](C)C[C@@H]2CC[C@@H](OCCO)[C@H](OC)C2)CC(=O)[C@H](C)/C=C(\C)[C@@H](O)[C@@H](OC)C(=O)[C@H](C)C[C@H](C)/C=C/C=C/C=C/1C` [everolimus, Everolimus], the “appearance of H1.0K180me2 upon bleomycin treatment” value with H1.0K180me2 [4] is “reduced the appearance of H1.0K180me2”.
